Source: paper PMC9019904, “AD Informer Set: Chemical tools to facilitate Alzheimer's disease drug discovery” (Alzheimer's & Dementia : Translational Research & Clinical …, 2022)

What was measured:
[1] = tested on: HMC3 (human microglia) cell line; test: pHrodo-myelin phagocytosis/cell viability high content imaging assay: phagocytosis signal; assay type: cell-based
Method in brief: (§1)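 Phagocytosis and cell viability were measured together by high content imaging about 22 hours after pHrodo-myelin addition. Three measurements were extracted from the images. Intensity increase and decrease were taken as early and later apoptosis, respectively.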

[2] = tested on: BV2 (mouse microglia) cell line; test: as above; assay type: cell-based
Method in brief: as §1

[3] = tested on: HMC3 (human microglia) cell line; test: pHrodo-myelin phagocytosis/cell viability high content imaging assay: viability (cell count, nuclear area, nuclear intensity); conditions: 48 hours treatment
Method in brief: (§2)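 Viability was read as total cell count per well by high-content imaging, with mean average nuclear intensity per cell profiling apoptosis (rise early, fall late). Compounds were given at 10 μM for 48 h, pHrodo-myelin being added for the final 20 h. Values are means of two points as % untreated control.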

[4] = tested on: BV2 (mouse microglia) cell line; test: as above; conditions: 48 hours treatment
Method in brief: as §2

[5] = HMC3 cells, 10 uM compound, 48 hours treatment, pHrodo-myelin final 20 hours
[6] = BV2 cells, 10 uM compound, 48 hours treatment, pHrodo-myelin final 20 hours
[7] = HMC3, compound 10 uM, pHrodo-myelin
[8] = BV2, compound 10 uM, pHrodo-myelin

Compound | 4. Phagocytosis (% control) [1, 5] | 4. Phagocytosis (% control) [2, 6] | 1. Cell count (% control) ([3]; HMC3 cells, 10 uM compound) | 2. Nuclear Area (% Control) ([3]; HMC3 cells, 10 uM compound) | 3. Nuclear DNA Intensity (% control) ([3]; HMC3 cells, 10 uM compound) | 1. Cell count (% control) ([4]; BV2 cells, 10 uM compound) | 2. Nuclear Area (% Control) ([4]; BV2 cells, 10 uM compound) | 3. Nuclear DNA Intensity (% control) ([4]; BV2 cells, 10 uM compound) | 4. Phagocytosis (% control) [1, 7] | 4. Phagocytosis (% control) [2, 8] | 1. Cell count (% control) ([3]; HMC3, compound 10 uM) | 2. Nuclear Area (% Control) ([3]; HMC3, compound 10 uM) | 3. Nuclear DNA Intensity (% control) ([3]; HMC3, compound 10 uM) | 1. Cell count (% control) ([4]; BV2, compound 10 uM) | 2. Nuclear Area (% Control) ([4]; BV2, compound 10 uM) | 3. Nuclear DNA Intensity (% control) ([4]; BV2, compound 10 uM)
Cc1cnc(Nc2ccc(F)cc2Cl)nc1-c1c[nH]c(C(=O)N[C@H](CO)c2cccc(Cl)c2)c1 [UNC10302866A] | 72.8 % control | 108.3 % control | 106.8 % control | 98.0 % Control | 96.6 % control | 83.7 % control | 101.5 % Control | 113.9 % control | – | – | – | – | – | – | – | –
CCN(CC)c1ccc(/C=N/NC(=O)c2ccc(O)cc2)cc1 [UNC10302868A] | 65.0 % control | 142.8 % control | 102.3 % control | 101.3 % Control | 100.0 % control | 64.8 % control | 105.9 % Control | 100.1 % control | – | – | – | – | – | – | – | –
CC(C)Nc1cc(-c2c[nH]c(C(=O)N[C@H](CO)c3cccc(Cl)c3)c2)c(Cl)cn1 [UNC10302869A] | 59.0 % control | 222.2 % control | 116.3 % control | 105.5 % Control | 89.1 % control | 44.0 % control | 125.5 % Control | 96.6 % control | – | – | – | – | – | – | – | –
CC(C)CCN1c2nc(Nc3cc(F)c(O)c(F)c3)ncc2N(C)C(=O)C1C (stereo not shown) [UNC10302870A] | – | – | – | – | – | – | – | – | 178.1 % control | 123.8 % control | 49.2 % control | 127.1 % Control | 123.8 % control | 15.1 % control | 106.7 % Control | 111.0 % control
Oc1c(F)cc(-c2cnccc2-c2ccc(N3CCOCC3)cc2)cc1F [UNC10302871A] | – | – | – | – | – | – | – | – | 84.7 % control | 174.2 % control | 123.1 % control | 101.3 % Control | 92.9 % control | 98.2 % control | 107.6 % Control | 98.3 % control
C=C1C(=O)[C@]23[C@H](O)[C@H]1CC[C@H]2[C@@]12CO[C@]3(O)[C@@H](O)[C@@H]1C(C)(C)CC[C@@H]2O [UNC10302873A] | – | – | – | – | – | – | – | – | 0.0307 % control | 153.4 % control | 42.7 % control | 59.1 % Control | 208.5 % control | 12.1 % control | 120.3 % Control | 80.8 % control
Cc1ccc(F)c(NC(=O)Nc2ccc(-c3cccc4[nH]nc(N)c34)cc2)c1 [UNC10302874A] | – | – | – | – | – | – | – | – | 29.4 % control | 235.2 % control | 43.1 % control | 121.8 % Control | 105.6 % control | 24.4 % control | 127.6 % Control | 103.1 % control
O=S(=O)(c1ccccc1)N(CC(F)(F)F)c1ccc(C(O)(C(F)(F)F)C(F)(F)F)cc1 [UNC10302875A] | 59.3 % control | 216.4 % control | 121.7 % control | 100.6 % Control | 97.9 % control | 109.2 % control | 107.3 % Control | 110.7 % control | – | – | – | – | – | – | – | –
